Test results as given in patent publication US5733904A, “Method for prevention and treatment of viral infectious diseases for viral suppression” (priority 1996, dated 1998).

Assays:
HIV-1 = assay: Comparison of suppressive activity of HIV proliferation with FAS and other anti-HIV drugs (syncytium formation); type: cell-based; details: for IC50: Human immunodeficiency virus 1, FIG. 5, approximate, read-out: 50% inhibitory concentration, syncytium formation
Protocol: Comparison of suppressive activity of HIV proliferation with FAS and other anti-HIV drugs.
Experiments were conducted by the same method as in Example 3.
The medicaments used in this experiment were compounds of the present invention (FAS, and a compound of formula [I] where R^1 is hydroxy as in the above-mentioned Japanese Patent Unexamined Publication No. 61-152658), ddI (Sigma Corp.) and AZT (Sigma Corp.) which are used as medicaments for the treatment of AIDS, and dextran sulfate (Sigma Corp.).

rabbit platelets = assay: Platelet aggregation; type: cell-based, rabbit (male, Japanese white); details: for Platelet aggregation rate, ADP: ADP 5 μM, control 66.3 ± 1.4; for Platelet aggregation rate, ADP / Platelet aggregation rate, Collagen: N=4, mean ± S.E.; for Platelet aggregation rate, Collagen: collagen 5 μg/ml, control 82.3 ± 1.6
Protocol: Rabbits (male, Japanese white, body weight 2-3 kg, Oriental Yeast Co.) were used. Blood was collected from an ear vein, a 1/10 volume of 3.8% sodium citrate was added thereto, and the mixture was centrifuged at 1,000 rpm for 10 minutes.
The supernatant separated by this action was designated platelet rich plasma (PRP), and the precipitate was further centrifuged at 3,000 rpm for 10 minutes to obtain a further supernatant, which was designated platelet poor plasma (PPP).
The number of platelets in the PRP was adjusted to 3×10^5 plate/μl by adding the PPP. A test sample was added to the PRP. After 1 minute, a prepared aqueous solution of ADP (adenosine diphosphate, Sigma Corp.) was added at the final concentration of 5 μM, or an aqueous solution of collagen (Sigma Corp.) was added at the final concentration of 5 μg/ml. The agglutination reaction was measured by using an agglico meter (NBS HEMA TRACER VI). The inhibition rate was calculated by comparing the maximum optical transmittance in samples with the compound to the maximum optical transmittance in samples with a physiological saline.
The compounds used were compounds of the present invention (FAS, and the compound of formula [I] where R^1 is hydroxy (Japanese Patent Unexamined Publication No. 61-152658) and adenosine (Sigma Corp.).

rabbit plasma = assay: Blood coagulation time (APTT, PT); design: species or system rabbit (male, Japanese white); details: for PT / APTT: N=4, mean ± S.E.; for PT: control 5.8 ± 0.1; for APTT: control 21.2 ± 0.5
Protocol: a) Blood coagulation time:
Rabbits (male, Japanese white, body weight 2-3 kg, Oriental Yeast Co.) were used. […] After adding the test compound to the resultant plasma, activated partial thromboplastin time (APTT) and prothrombin time (PT) were measured by using a coagulometer (Coagtec, Coagtec TE600, EMRA; KC-10A, Baxter).

Acute toxicity in mice = assay: Acute toxicity in mice; design: species or system mouse (Slc: ddy, 5 weeks); details: mouse, in vivo, iv, i. v., male
Protocol: Acute toxicity of the compounds of the present invention were conducted on rats and mice, and low toxicity was confirmed.

[1] = tested on: Herpes simplex virus type I; assay: Inhibitory action for plaque formation of Herpes simplex virus type I; type: cell-based; details: mean of two, control 51
Protocol: (§1) Experiments were performed according to a method described in Antiviral Chemistry and Chemotherapy, 5 (6), 366-371, 1994 and Experimental Virology, Ed. by NIH Japan alumni assoc., Maruzen Publ. 1982, p. 65-78 or p. 331-340.
(§2) Vero cells cultured in the medium (Dulbecco's modified MEM added with 10% FBS) were detached by trypsin (Sigma Corp.). The detached cells were suspended by 2×10^5 cells/ml in the same medium, and placed in the wells of a 48 hole plate. The plate was incubated at 37° C. under 5% CO2 for about one day to complete a full-sheet of the cells in all wells. After incubation, cultured supernatant was removed. A solution (50 μl) containing the compound diluted with 4-fold stepwise dilution by virus culture medium (MM: Dulbecco's modified MEM added with 2% FBS), was added thereto.
(§3) A viral solution, 50 μl, in which the number of virus (parainfluenza virus or Herpes simplex virus type I) was adjusted to about 50 pfu (plaque forming unit)/50 μl by MM, was added to each well. MM 400 μl containing 1% methylcellulose was added in each well to provide a compound-added test group. A control group was prepared by adding the viral culture medium without adding the test compound.
(§4) The groups were incubated at 37° C. under 5% CO2 for three days to form plaques and the number of plaques in each well was counted.
(§5) The test compounds were FAS, and the compound of formula [I] where R^1 is hydroxy. The final concentration of the compound in the solution was set to 100, 25, 6.3 and 1.6 μg/ml, respectively. Each test group included 2 wells and a mean of the plaque numbers was obtained.

parainfluenza virus = assay: Inhibitory action for plaque formation of parainfluenza virus; type: cell-based; details: mean of two, control 51.5
Protocol: as §1, §2, §3, §4, §5

[2] = tested on: HIV-1 (LAV-1) persistently infected MOLT-4 cells with non-infected MOLT-4 cells; assay: Inhibitory activity of HIV syncytia formation: HIV-1 chronic-phase infection; type: cell-based; details: FIG. 2; 48 hours
Protocol: b) Activity of the medicament on HIV-1 chronic-phase infection:
Cells obtained by culturing MOLT-4 (culture condition: 37° C., 5% CO2 /95% air, RPMI medium (GIBCO Corp.) containing 10% FBS) were adjusted to a preferable number of cells (1×10^5 cells/50 μl). HIV-1 (LAV-1) preparation, 50 μl was added to the cell suspension, 50 μl and subjected to a mixing culture (infectious condition of HIV-1 to MOLT-4: M.O.I.=1). The infected cell mixture was cultured by exchanging a fresh culture medium every 3 days at a volume rate of 2:5. The culture was continued for more than 1 month to prepare persistent infected cells. The concentration of the persistent infected cells was adjusted to a preferable number of cells (1×10^5 cells/50 μl ) (the persistent infected cell preparation).
Cell preparation without infection was prepared by culturing MOLT-4 (culture condition: 37° C., 5% CO2 /95% air, RPMI medium (GIBCO Corp.) containing 10% FBS) and adjusting the concentration to a preferable number of cells (1×10^5 cells/50 μl).
The persistent infected cell preparation, 50 μl, was placed in the wells of a 96 hole microplate and the non-infected cell preparation, 50 μl, was added therein and cultured for 48 hours. Numbers of the formed syncytia were counted microscopically.
Each compound solution tested was added, 100 μl, at the time of mixing the persistent infected cell preparation with the non-infected cell preparation, to provide the final concentrations shown in FIG. 2 (medicament added test group).
The no-medicament-added group (control group) was prepared by replacing the compound solution, 100 μl.

HIV = details: Antiviral Res., 22: 273-283, 1993; cited from earlier work
[3] = tested on: Env (gp120) protein, HIV-1 infected MOLT-4 cells; assay: Suppressive action on expression of Env (gp120) protein on the surface of cells; type: cell-based; details: FIG. 3; Env positive cells after 5 days
Protocol: (Suppressive action on expression of Env (gp120) protein on the surface of cells.)
Cells obtained by culturing MOLT-4 (culture condition: 37° C., 5% CO2 /95% air, RPMI medium (GIBCO Corp.) containing 10% FBS) were adjusted to a preferable number of cells (1×10^5 cells/50 μl ). The cell suspension, 50 μl, (infected with MOLT-4 and HIV-1: M.O.I.=1.0) was put in a 96 hole microplate and cultured for 1 hour to infect the cells.
A solution of the compound shown below, 100 μl, was added in each well and cultured for 5 days. The cultured solution was transferred into a plastic tube (Eppendorf Corp.) and centrifuged to collect the cells. The cells were treated with mouse anti-Env gp120 monoclonal antibody (Replingen Inc.) as a primary antibody and FITC (Fluorescein Isothiocyanate) labelled goat anti-mouse IgG (Cappel Corp.) as a secondary antibody to fluoresce. The number of fluorescent cells was fluoroscopically calculated by counting fluorescent cells according to an indirect fluorescent antibody technique (Techniques in HIV Research, Ed. A. Aldoriny and B. D. Walker, Stokton Press, New York, 1990).
Env positive cells (%) was calculated by the following equation:
Env positive cells (%)=(FITC) positive cells/total cells)×100
Compounds: FAS, H-7 and KN-62.
Control: solution without compound was used.

[4] = tested on: HIV-1 (LAV-1 strain) in MOLT-4 cells; assay: Inhibitory activity of HIV syncytia formation: HIV-1 acute-phase infection; type: cell-based; details: for inhibition at 30 µM: Human immunodeficiency virus 1, MOLT-4, in concentrations of 30 μM, 48 hours; for inhibitory effects on syncytia formation: in concentrations of 2.0 μM
Protocol: a) Activity of the medicament on HIV-1 acute-phase infection:
Cells obtained by culturing MOLT-4 (American Type Culture Collection ATCC CRL-1582) in RPMI medium (GIBCO Corp.) containing 10% FBS (fetal bovine serum: GIBCO Corp.) (culture condition: 37° C., 5% CO2 /95% air) were prepared to aliquot number of cells (1×10^5 cells/50 μl). The cell suspension, 50 μl and the liquid preparation, 50 μl containing HIV-1 (LAV-1 strain, Wain-Hobson et al., Cell 40: 9-17, 1985) in RPMI medium with 10% FBS were put into each well of a 96 hole microplate and cultured for 48 hours (Infectious condition of MOLT-4 and HIV-1: M.O.I.=4.0).
Each compound was dissolved in RPMI medium containing 10% FBS at the final concentration as shown in FIG. 1 to prepare the medicament solution. The medicament solution, 100 μl was added to the mixture of MOLT-4 cell preparation and HIV-1 preparation at the time of mixing with MOLT-4 and HIV-1 to prepare the final volume of the liquid, 200 μl. The number of formed syncytia were microscopically counted.
Tested compounds were: FAS (fasudil hydrochloride, Chem. Pharm. Bull., 40 (3), 770-773, (1992)), C kinase inhibitor H-7 (1-5-isoquinolinylsulfonyl)-2-methyl-piperazine, Sigma Corp.), and calmodulin kinase II inhibitor KN-62 (1-(N,O-bis-[5-isoquinolinylsulfonyl]-N-methyl-L-tyrosyl)-4-phenyl-piperazine, Sigma Corp., Neuroscience Lett., 129, 47 (1991)) .
The control group without the compound was prepared by replacing the medicament solution, 100 μl.
Syncytium formation activity was calculated by comparing the syncytia formation in the test group to that of the control group in the following equation.
Syncytium formation activity=number of syncytia formed in the medicament-added group/number of syncytia formed in the no-medicament-added group.

Compound: Cc1cn([C@H]2C[C@H](N=[N+]=[N-])[C@@H](CO)O2)c(=O)[nH]c1=O [AZT, 3'-azido-3'-deoxythymidine]
- IC50 (HIV-1): ~50 µM

Compound: Nc1ncnc2c1ncn2[C@@H]1O[C@H](CO)[C@@H](O)[C@H]1O [Adenosine, adenosine]
- effect on ADP coagulation and collagen coagulation (rabbit platelets): suppressed ADP coagulation and collagen coagulation

Compound: O=S(=O)(c1cccc2c(O)nccc12)N1CCCNCC1 [Compound of the formula [I] (R^1 = OH)]
- effect on blood coagulation time (APTT, PT) (rabbit plasma): no effect on blood coagulation time
- PT (rabbit plasma; 30 μM): 5.6 ± 0.1 s
- APTT (rabbit plasma; 30 μM): 20.2 ± 0.4 s
- PT (rabbit plasma; 100 μM): 5.5 ± 0.1 s
- APTT (rabbit plasma; 100 μM): 20.1 ± 0.4 s
- LD50 (Acute toxicity in mice): 119 mg/kg
- Plaque No. ([1]; 1.6 μg/ml): 51
- Plaque No. ([1]; 6.3 μg/ml): 51
- Plaque No. ([1]; 25 μg/ml): 56
- Plaque No. ([1]; 100 μg/ml): 37.5
- inhibitory activity of syncytium formation of HIV-1 (HIV-1): inhibited the formation of syncytium of HIV-1
- Platelet aggregation rate, ADP (rabbit platelets; 10 μM): 63.0 ± 2.3%
- Platelet aggregation rate, Collagen (rabbit platelets; 10 μM): 80.0 ± 1.7%
- Platelet aggregation rate, ADP (rabbit platelets; 30 μM): 63.8 ± 2.9%
- Platelet aggregation rate, Collagen (rabbit platelets; 30 μM): 79.3 ± 1.1%
- Platelet aggregation rate, ADP (rabbit platelets; 100 μM): 64.3 ± 3.8%
- Platelet aggregation rate, Collagen (rabbit platelets; 100 μM): 81.0 ± 1.2%
- Plaque No. (parainfluenza virus; 25 μg/ml): 59
- Plaque No. (parainfluenza virus; 100 μg/ml): 4.5

Compound: CC1CNCCN1S(=O)(=O)c1cccc2cnccc12 (centres unmarked) [H-7, 1-(5-isoquinoryl-sulfonyl)-2-methyl-piperazine]
- inhibitory activity for syncytium formation [2]: no inhibitory activity for syncytium formation
- effectiveness against HIV infectious disease (HIV): has not been found to be clearly effective
- inhibitory activity for Env expression [3]: no significant inhibitory activity for Env expression
- inhibition at 30 µM [4]: ~50%
- inhibitory effects on syncytia formation [4]: no inhibitory effects were observed

Compound: CN([C@@H](Cc1ccc(OS(=O)(=O)c2cccc3cnccc23)cc1)C(=O)N1CCN(c2ccccc2)CC1)S(=O)(=O)c1cccc2cnccc12 [KN-62, 1-(N,O-bis-[5-isoquinolinylsulfonyl]-N-methyl-L-tyrosyl)-4-phenyl-piperazine]
- inhibitory activity for syncytium formation [2]: no inhibitory activity for syncytium formation
- inhibitory activity for Env expression [3]: weak inhibitory activity for Env expression
- inhibition at 30 µM [4]: ~75%
- inhibitory effects on syncytia formation [4]: no inhibitory effects were observed

Compound: OC[C@@H]1CC[C@H](n2cnc3c(O)ncnc32)O1 [ddI, 2', 3'-dideoxyinosine]
- IC50 (HIV-1): ~100 µM

Compound: Heparin
- effect on blood coagulation time (APTT, PT) (rabbit plasma): clearly extended APTT and PT
